# Measurements reported in ChEMBL document CHEMBL4390688, “Accelerating the discovery of DGAT1 inhibitors through the application of parallel medicinal chemistry (PMC)” (Bioorg Med Chem Lett, 2019).
# Columns and labels:
# Homo sapiens = species on record: Homo sapiens; experiment: Ratio of IC50 for human ACAT1 to IC50 for human DGAT1
# [1] = target: T1, Diacylglycerol O-acyltransferase 1 (Homo sapiens, UniProt O75907)
# T1 sequence (O75907 whole entry): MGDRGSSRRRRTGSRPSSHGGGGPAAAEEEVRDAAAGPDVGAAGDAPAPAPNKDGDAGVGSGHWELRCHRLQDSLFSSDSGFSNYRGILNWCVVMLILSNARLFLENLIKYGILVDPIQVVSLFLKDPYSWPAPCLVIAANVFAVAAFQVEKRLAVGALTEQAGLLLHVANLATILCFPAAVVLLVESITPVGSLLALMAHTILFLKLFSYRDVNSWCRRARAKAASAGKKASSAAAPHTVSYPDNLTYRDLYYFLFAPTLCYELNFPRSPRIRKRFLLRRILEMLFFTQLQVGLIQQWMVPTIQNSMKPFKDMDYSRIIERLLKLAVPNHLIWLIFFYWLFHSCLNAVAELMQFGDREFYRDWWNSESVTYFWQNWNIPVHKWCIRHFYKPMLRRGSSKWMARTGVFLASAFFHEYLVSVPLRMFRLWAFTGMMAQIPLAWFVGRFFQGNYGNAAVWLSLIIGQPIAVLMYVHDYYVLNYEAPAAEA
# Description: Inhibition of human DGAT1
# [2] = target: T2, Diacylglycerol O-acyltransferase 1 (Mus musculus, UniProt Q9Z2A7)
# T2 sequence (Q9Z2A7 whole entry): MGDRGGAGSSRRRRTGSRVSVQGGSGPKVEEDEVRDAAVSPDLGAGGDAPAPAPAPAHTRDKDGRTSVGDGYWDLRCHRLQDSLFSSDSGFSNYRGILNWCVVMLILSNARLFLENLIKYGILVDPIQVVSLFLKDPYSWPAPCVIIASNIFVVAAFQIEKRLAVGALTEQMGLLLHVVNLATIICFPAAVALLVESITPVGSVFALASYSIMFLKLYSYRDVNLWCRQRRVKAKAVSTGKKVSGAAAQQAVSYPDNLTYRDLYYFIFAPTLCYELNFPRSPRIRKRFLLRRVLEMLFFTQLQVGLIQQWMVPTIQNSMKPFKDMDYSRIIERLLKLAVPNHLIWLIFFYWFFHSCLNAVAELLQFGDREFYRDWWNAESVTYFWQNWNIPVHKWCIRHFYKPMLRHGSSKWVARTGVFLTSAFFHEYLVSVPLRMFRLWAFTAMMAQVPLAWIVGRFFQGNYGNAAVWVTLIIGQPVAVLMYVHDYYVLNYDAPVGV
# Description: Inhibition of mouse DGAT1
# [3] = target: T3, Sterol O-acyltransferase 1 (Homo sapiens, UniProt P35610)
# T3 sequence (P35610 whole entry): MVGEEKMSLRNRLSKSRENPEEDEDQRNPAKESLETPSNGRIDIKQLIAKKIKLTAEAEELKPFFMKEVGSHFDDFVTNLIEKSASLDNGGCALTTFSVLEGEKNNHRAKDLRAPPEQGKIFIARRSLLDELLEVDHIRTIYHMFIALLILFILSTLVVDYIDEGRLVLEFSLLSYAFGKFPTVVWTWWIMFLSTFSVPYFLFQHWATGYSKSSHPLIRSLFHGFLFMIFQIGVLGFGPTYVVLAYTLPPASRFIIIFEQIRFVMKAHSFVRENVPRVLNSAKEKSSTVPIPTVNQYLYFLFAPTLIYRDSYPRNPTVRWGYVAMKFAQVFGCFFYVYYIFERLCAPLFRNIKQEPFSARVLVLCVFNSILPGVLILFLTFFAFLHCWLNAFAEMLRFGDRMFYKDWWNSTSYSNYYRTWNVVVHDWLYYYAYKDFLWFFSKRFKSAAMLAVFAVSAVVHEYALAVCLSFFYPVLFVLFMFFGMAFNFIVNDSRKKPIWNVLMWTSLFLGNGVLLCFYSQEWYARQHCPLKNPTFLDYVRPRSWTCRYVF
# Description: Inhibition of human ACAT1
# [4] = target: Voltage-gated inwardly rectifying potassium channel KCNH2 (Homo sapiens, UniProt Q12809); experiment: Inhibition of human ERG
# [5] = Distribution coefficient, log D of compound; assay type: physicochemical; details: octanol/water
# Mus musculus [6] = experiment: Reduction in lipid excursion in mouse at 10 mg/kg, po QD measured at 18 hrs post dose by lipid tolerance test relative to control; assay type: functional; design: scale not given: the % may be the effect or the level left
# Mus musculus [7] = experiment: Reduction in lipid excursion in mouse at 3 mg/kg, po administered as single dose measured after 18 hrs by lipid tolerance test relative to control; assay type: functional; design: scale not given: the % may be the effect or the level left
# Adenosine receptor A2a [8] = target: T4, Adenosine receptor A2a (Homo sapiens, UniProt P29274); experiment: Activity against human A2AR assessed as inhibition of cAMP accumulation by cAMP functional assay
# [9] = Volume of distribution at steady state in Beagle dog at 1 mg/kg, iv or 2 mg/kg, po; assay type: ADME, organism-based, Canis lupus familiaris; details: in vivo, read-out: Vdss
# [10] = Half life in Beagle dog at 1 mg/kg, iv or 2 mg/kg, po; assay type: ADME, organism-based, Canis lupus familiaris; details: in vivo
# [11] = Volume of distribution at steady state in Sprague-Dawley rat at 1 mg/kg, iv or 2 mg/kg, po; assay type: ADME, organism-based; details: in vivo, read-out: Vdss
# [12] = Mutagenicity in Salmonella typhimurium […] up to 30 to 5000 ug/plate by Ames test; assay type: toxicity; details: salmonella enterica subsp. enterica serovar typhimurium
# [13] = Tmax in Sprague-Dawley rat at 1 mg/kg, iv or 2 mg/kg, po; assay type: ADME, organism-based; details: in vivo
# [14] = Cmax in Sprague-Dawley rat at 1 mg/kg, iv or 2 mg/kg, po; assay type: ADME, organism-based; details: in vivo
# [15] = Mutagenicity in Salmonella typhimurium TA98 up to 30 to 5000 ug/plate by Ames test; assay type: toxicity; details: salmonella enterica subsp. enterica serovar typhimurium
# [16] = Oral bioavailability in Sprague-Dawley rat at 2 mg/kg; assay type: ADME, organism-based; details: in vivo
# [17] = Cmax in Beagle dog at 1 mg/kg, iv or 2 mg/kg, po; assay type: ADME, organism-based, Canis lupus familiaris; details: in vivo
# [18] = Mutagenicity in Salmonella typhimurium TA100 up to 30 to 5000 ug/plate by Ames test; assay type: toxicity; details: salmonella enterica subsp. enterica serovar typhimurium
# [19] = Half life in Sprague-Dawley rat at 1 mg/kg, iv or 2 mg/kg, po; assay type: ADME, organism-based; details: in vivo
# [20] = Oral bioavailability in Beagle dog at 2 mg/kg; assay type: ADME, organism-based, Canis lupus familiaris; details: in vivo
# Canis familiaris = experiment: Reduction in lipid excursion in dog at 1 mg/kg, po measured by lipid tolerance test relative to control; assay type: functional, Canis lupus familiaris; design: scale not given: the % may be the effect or the level left
# [21] = Dose normalized AUC in Sprague-Dawley rat at 1 mg/kg, iv or 2 mg/kg, po; assay type: ADME, organism-based; details: in vivo
# [22] = Tmax in Beagle dog at 1 mg/kg, iv or 2 mg/kg, po; assay type: ADME, organism-based, Canis lupus familiaris; details: in vivo
# [23] = Clearance in Beagle dog at 1 mg/kg, iv or 2 mg/kg, po; assay type: ADME, organism-based, Canis lupus familiaris; details: in vivo
# [24] = Clearance in Sprague-Dawley rat at 1 mg/kg, iv and 2 mg/kg, po; assay type: ADME, organism-based; details: in vivo
# [25] = Dose normalized AUC in Beagle dog at 1 mg/kg, iv or 2 mg/kg, po; assay type: ADME, organism-based, Canis lupus familiaris; details: in vivo
# Adenosine receptor A2a [26] = target: T4, Adenosine receptor A2a; experiment: Activity at human Adenosine A2A receptor; assay type: ADME
# [27] = Mutagenicity in Salmonella typhimurium TA100 by Ames test; assay type: toxicity; details: salmonella enterica subsp. enterica serovar typhimurium
# [28] = Mutagenicity in Salmonella typhimurium TA98 by Ames test; assay type: toxicity; details: salmonella enterica subsp. enterica serovar typhimurium
# [29] = Mutagenicity in Salmonella typhimurium […] by Ames test; assay type: toxicity; details: salmonella enterica subsp. enterica serovar typhimurium
# [30] = Solubility of the compound at pH 7; assay type: physicochemical; details: buffer
# T4 sequence (P29274 whole entry): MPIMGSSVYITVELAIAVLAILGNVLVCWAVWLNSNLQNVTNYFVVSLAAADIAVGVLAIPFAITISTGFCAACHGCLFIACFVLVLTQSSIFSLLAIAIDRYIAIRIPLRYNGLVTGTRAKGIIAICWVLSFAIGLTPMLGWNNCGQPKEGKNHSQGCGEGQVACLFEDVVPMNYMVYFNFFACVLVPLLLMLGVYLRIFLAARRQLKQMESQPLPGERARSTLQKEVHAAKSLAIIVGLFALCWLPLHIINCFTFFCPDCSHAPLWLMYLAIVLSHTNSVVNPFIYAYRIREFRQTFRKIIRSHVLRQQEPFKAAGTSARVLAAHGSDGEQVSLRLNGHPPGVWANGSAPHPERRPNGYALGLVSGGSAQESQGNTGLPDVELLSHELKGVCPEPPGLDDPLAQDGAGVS
# Chain of Voltage-gated inwardly rectifying potassium channel KCNH2 (Q12809 whole entry): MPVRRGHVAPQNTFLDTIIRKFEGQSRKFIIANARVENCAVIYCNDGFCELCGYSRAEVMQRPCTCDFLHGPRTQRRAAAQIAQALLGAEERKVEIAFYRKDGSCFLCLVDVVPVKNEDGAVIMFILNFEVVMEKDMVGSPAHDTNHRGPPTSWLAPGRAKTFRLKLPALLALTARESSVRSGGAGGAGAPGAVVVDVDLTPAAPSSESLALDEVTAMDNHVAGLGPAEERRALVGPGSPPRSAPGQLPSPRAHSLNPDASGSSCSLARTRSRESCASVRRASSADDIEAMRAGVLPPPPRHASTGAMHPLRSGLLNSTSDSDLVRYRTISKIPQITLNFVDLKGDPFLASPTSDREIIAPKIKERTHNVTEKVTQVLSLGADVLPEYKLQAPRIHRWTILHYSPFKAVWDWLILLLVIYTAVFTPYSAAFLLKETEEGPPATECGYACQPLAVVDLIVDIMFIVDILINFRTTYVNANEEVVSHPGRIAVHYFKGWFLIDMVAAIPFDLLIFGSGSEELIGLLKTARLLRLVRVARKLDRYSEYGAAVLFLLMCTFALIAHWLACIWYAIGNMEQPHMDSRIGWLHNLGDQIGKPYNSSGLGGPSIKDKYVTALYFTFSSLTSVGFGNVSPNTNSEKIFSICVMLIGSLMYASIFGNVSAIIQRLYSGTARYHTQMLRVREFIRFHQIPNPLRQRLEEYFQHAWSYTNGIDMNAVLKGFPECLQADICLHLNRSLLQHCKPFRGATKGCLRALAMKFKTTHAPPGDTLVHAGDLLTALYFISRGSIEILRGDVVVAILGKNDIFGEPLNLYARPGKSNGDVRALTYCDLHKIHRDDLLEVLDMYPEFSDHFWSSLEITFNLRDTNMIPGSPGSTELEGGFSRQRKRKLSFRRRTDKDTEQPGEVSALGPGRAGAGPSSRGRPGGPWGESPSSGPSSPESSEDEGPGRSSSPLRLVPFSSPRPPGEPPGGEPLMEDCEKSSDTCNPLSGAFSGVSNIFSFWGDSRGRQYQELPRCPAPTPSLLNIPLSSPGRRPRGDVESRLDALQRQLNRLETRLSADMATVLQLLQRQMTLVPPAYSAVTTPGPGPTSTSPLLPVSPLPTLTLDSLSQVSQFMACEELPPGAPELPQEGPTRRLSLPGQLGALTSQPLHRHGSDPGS
IC50 [1],IC50 [2],IC50 [3],IC50 (Adenosine receptor A2a [8]),SMILES,Ki [4],Activity (Mus musculus [7]),other results
2.5 nM,20 nM,> 10000 nM,–,CC1(C(=O)O)CCN(c2ccc(-c3ccc(-c4nc5cc(Cl)ccc5[nH]4)cn3)cn2)CC1,4800 nM,–,Ratio IC50 (Homo sapiens): > 4000; logD [5]: 1.45; Activity (Mus musculus [6]): 96%
4.1 nM,11 nM,> 10000 nM,520 nM,O=C(O)C[C@H]1CC[C@H](OC2CCN(c3ccc(-c4nc5c(F)cc(F)cc5[nH]4)cn3)CC2)CC1,4100 nM,65%,–
3.6 nM,17.8 nM,> 10000 nM,430 nM,N#Cc1ccc2[nH]c(-c3ccc(-c4ccc(O[C@H]5CC[C@@H](CC(=O)O)CC5)nc4)nc3)nc2c1,2700 nM,63%,–
6.5 nM,46 nM,> 10000 nM,3480 nM,O=C(O)C[C@H]1CC[C@H](OC2CCN(c3ccc(-c4nc5cc(F)c(F)cc5[nH]4)cn3)CC2)CC1,40700 nM,84%,Vd [9]: 0.81 L/kg; half-life [10]: 3.2 h; Vd [11]: 1.08 L/kg; Activity [12]: Non-Toxic; Tmax [13]: 1 h; Cmax [14]: 230 nM; Activity [15]: Non-Toxic; bioavailability [16]: 17%; Cmax [17]: 2400 nM; Activity [18]: Non-Toxic; half-life [19]: 1 h; bioavailability [20]: 40%; Activity (Canis familiaris): 100%; AUC/dose [21]: 0.3 µM·h/mg/kg; Tmax [22]: 0.5 h; clearance [23]: 3.4 mL/min/kg; clearance [24]: 17 mL/min/kg; AUC/dose [25]: 4.1 µM·h/mg/kg
6.4 nM,–,3780 nM,–,Oc1ccc(-c2ccc(-c3nc4cc(C(F)(F)F)ccc4[nH]3)cc2)cn1,2250 nM,–,Ratio IC50 (Homo sapiens): > 500
8 nM,21.4 nM,> 10000 nM,910 nM,O=C(O)C[C@H]1CC[C@H](OC2CCN(c3ccc(-c4nc5c(F)cccc5[nH]4)cn3)CC2)CC1,10700 nM,92%,–
2.4 nM,3.2 nM,> 2000 nM,420 nM,O=C(O)C[C@H]1CC[C@@H](Oc2ccc(-c3ccc(-c4nc5cc(F)ccc5[nH]4)cn3)cn2)CC1,8200 nM,109%,–
7 nM,9.5 nM,> 2000 nM,970 nM,O=C(O)C[C@H]1CC[C@@H](Oc2ccc(-c3ccc(-c4nc5cc(C(F)(F)F)cnc5[nH]4)cn3)cn2)CC1,23400 nM,92%,Activity (Adenosine receptor A2a [26]): Active
30.8 nM,–,> 10000 nM,490 nM,Cc1ccc2[nH]c(-c3ccc(-c4ccc(O[C@H]5CC[C@@H](CC(=O)O)CC5)nc4)nc3)nc2n1,> 60000 nM,–,–
3.1 nM,22 nM,> 10000 nM,680 nM,O=C(O)C[C@H]1CC[C@H](OC2CCN(c3ccc(-c4nc5cc(Cl)ccc5[nH]4)cn3)CC2)CC1,4500 nM,–,–
11.6 nM,9.8 nM,> 2000 nM,1200 nM,COc1ccc2[nH]c(-c3ccc(-c4ccc(O[C@H]5CC[C@@H](CC(=O)O)CC5)nc4)nc3)nc2n1,37700 nM,96%,Activity (Adenosine receptor A2a [26]): Active
2 nM,4.6 nM,> 10000 nM,1800 nM,O=C(O)C[C@H]1CC[C@H](OC2CCN(c3ccc(-c4nc5cc(C(F)(F)F)ccc5[nH]4)cn3)CC2)CC1,4900 nM,57%,–
15.2 nM,42.1 nM,> 10000 nM,> 10000 nM,O=C(O)C[C@H]1CC[C@H](OC2CCN(c3ccc(-c4nc5ccccc5[nH]4)cn3)CC2)CC1,25700 nM,85%,Activity [27]: Toxic; Activity [28]: Toxic; Activity [29]: Toxic
1.3 nM,4.4 nM,1940 nM,–,O=C(O)c1ccc(Oc2ccc(-c3ccc(-c4nc5cc(Cl)ccc5[nH]4)cn3)cn2)cc1,1360 nM,–,solubility [30]: < 1 µM; logD [5]: 1.49
5.2 nM,5.2 nM,> 2000 nM,450 nM,O=C(O)C[C@H]1CC[C@@H](Oc2ccc(-c3ccc(-c4nc5ccccc5[nH]4)cn3)cn2)CC1,26900 nM,92%,Activity (Adenosine receptor A2a [26]): Active
